Results on 29 compounds are retold here after US20100266504A1, “CONDENSED PYRIDINE DERIVATIVE AND USE THEREOF” (priority 2007, published 2010).

Counter-ions that a name gives are not always drawn. Like-named read-outs stand apart in the source and are kept apart here.

Assay [1] has as its system spinal cord transected female rats whose hypogastric nerve and pudendal nerves were bilaterally cut. The assay is described as follows: urethral closure response induced by increased intravesical pressure (Experimental Example 5). As to conditions: for urethral closure response (cmH2O) after drug administration: i.v., 10 min after administration; for urethral closure response (cmH2O) after drug administration / urethral closure response (cmH2O) before drug administration: mean ± SEM, n=5; for urethral closure response (cmH2O) before drug administration: i.v. group; for effect on urethral closure response induced by increased intravesical pressure (in words): intravenous administration.
Protocol: Female SD rats (body weight 200-310 g) were anesthetized with urethane (Wako Pure Chemical Industries, Ltd.), and the spinal cord was transected at T8-9 level to eliminate the micturition reflex. During the operation, halothane (Takeda Pharmaceutical Company Limited) anesthesia was added when necessary. After abdominal section, bladder neck was ligated with a suture thread, and then the hypogastric nerve and pudendal nerve were bilaterally transected. A catheter (PE-90, Clay Adams) was placed in the bladder, and the other end of the bladder catheter was connected to a pressure transducer and a water reservoir (60 ml syringe) of saline via a three-way cock. A microtip transducer catheter (SPR-524, Millar Instruments Inc.) was inserted toward the bladder from the urethral orifice, and adjusted using a scale on the catheter surface so that the transducer part is positioned in the urethra at 10.0-15.0 mm from the urethral orifice.
The changes in the topical pressure within the urinary tract (hereinafter conveniently indicated as urethral pressure) as measured by the microtip transducer was transmitted to a computer via an amplifier (blood pressure amplification unit AP-641G; NIHON KOHDEN) and a data analyzer (MP-100; biopack; sampled at 500 Hz), and recorded on a hard disc. […] The reaction of the urinary tract induced by an increased intravesical pressure was measured 3 times, and the average of the last 2 measures was taken as the value before drug administration. The evaluation item was reflex urethral closure response, and the recorded values were subjected to smoothing process at 500 points to calculate an average urethral pressure per 1 sec, after which the value immediately before increase in the intravesical pressure was subtracted from the maximum value on increase in the intravesical pressure and taken as the urethral closure response. […] The drugs were all dissolved in N,N-dimethylformamide/polyethylene glycol 400 (1:1) and administered intravenously at a volume of 0.5 ml/kg.

The test system of assay [2] is spinal cord-transected female rats under urethane anesthesia. The assay can be described thus: leak point pressure by high speed infusion method, serotonin 5-HT2C receptor agonists (Experimental Example 3). Conditions: for change of leak point pressure (cmH2O): i.v., mean ± SEM; for effect on leak point pressure (in words): intravenous administration.
Protocol: SD female rats (body weight 180-350 g) were anesthetized with urethane (Wako Pure Chemical Industries, Ltd.), and the spinal cord was cut at T8-9 level to eliminate the micturition reflex. During the operation, halothane (Takeda Pharmaceutical Company Limited) anesthesia was added as necessary. The rats were fixed at a dorsal position, and two catheters (PE-100; Clay Adams) were indwelled in the bladder. One of the catheters was filled with saline stained with Evans Blue dye (Merck), and connected to a 50 ml syringe (TERUMO CORPORATION) fixed on an infusion pump (KD Scientific) via a three-way cock. The other catheter was connected to a pressure transducer (DX-100; NIHON KOHDEN CORPORATION), and signals of the transducer were transmitted to computer via an amplifier (blood pressure amplification unit AP-641G; NIHON KOHDEN CORPORATION) and a data analyzer (BIOPAC; MP100), and recorded on a hard disk. The data was analyzed on the computer using a software (BIOPAC; AcqKnowledge). Saline was injected into the bladder using the infusion pump at a rate of 360 ml/hr, infusion was stopped on the moment fluid leakage from the urethral meatus was observed, and the solution in the bladder was discharged by opening the three-way cock. The maximum intravesical pressure during infusion was taken as a leak point pressure, which was measured repeatedly until the value was stabilized, and the average value of the last three measures was taken as the data. […] All the drugs were dissolved in DMA/PEG400 (1:1) and intravenously administered at 0.5 ml/kg.
Assay [3] addresses serotonin 5-HT2C receptor (isoform type VSV, stably expressing CHO cell) (Homo sapiens, UniProt P28335, I156V/I160V/N158S). The assay can be described thus: cell-based. Conditions: for Emax: CHO, read-out: ratio relative to maximum response by 5-HT (1 μM); for ratio relative to maximum response by 5-HT (1 μM): hydrochloride.
Assay [4] concerns spinal cord-transected female rats under urethane anesthesia. As to conditions: before vs after administration.
Protocol: SD female rats (body weight 180-350 g) were anesthetized with urethane (Wako Pure Chemical Industries, Ltd.), and the spinal cord was cut at T8-9 level to eliminate the micturition reflex. During the operation, halothane (Takeda Pharmaceutical Company Limited) anesthesia was added as necessary. The rats were fixed at a dorsal position, and two catheters (PE-100; Clay Adams) were indwelled in the bladder. One of the catheters was filled with saline stained with Evans Blue dye (Merck), and connected to a 50 ml syringe (TERUMO CORPORATION) fixed on an infusion pump (KD Scientific) via a three-way cock. The other catheter was connected to a pressure transducer (DX-100; NIHON KOHDEN CORPORATION), and signals of the transducer were transmitted to computer via an amplifier (blood pressure amplification unit AP-641G; NIHON KOHDEN CORPORATION) and a data analyzer (BIOPAC; MP100), and recorded on a hard disk. The data was analyzed on the computer using a software (BIOPAC; AcqKnowledge). Saline was injected into the bladder using the infusion pump at a rate of 360 ml/hr, infusion was stopped on the moment fluid leakage from the urethral meatus was observed, and the solution in the bladder was discharged by opening the three-way cock. The maximum intravesical pressure during infusion was taken as a leak point pressure.

serotonin 5-HT2C receptor (isoform type VSV, stably expressing CHO cell), sequence (P28335 33-458 I156V/N158S/I160V limits assumed): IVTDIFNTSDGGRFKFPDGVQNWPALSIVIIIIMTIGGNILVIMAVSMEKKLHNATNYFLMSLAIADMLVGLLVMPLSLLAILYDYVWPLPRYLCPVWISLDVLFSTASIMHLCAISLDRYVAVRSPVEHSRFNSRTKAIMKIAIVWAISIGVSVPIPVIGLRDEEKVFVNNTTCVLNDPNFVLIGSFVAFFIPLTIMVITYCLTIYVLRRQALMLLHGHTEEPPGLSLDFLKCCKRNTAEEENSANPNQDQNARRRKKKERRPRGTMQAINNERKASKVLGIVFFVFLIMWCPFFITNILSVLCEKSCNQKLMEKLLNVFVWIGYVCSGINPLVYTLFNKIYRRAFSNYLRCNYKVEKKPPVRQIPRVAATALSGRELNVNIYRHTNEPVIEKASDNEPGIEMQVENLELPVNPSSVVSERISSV

With `c1cc2c(nc1N1CCOCC1)OCCNC2` [compound A, 8-morpholin-4-yl-2,3,4,5-tetrahydropyrido[3,2-f][1,4]oxazepine], the “urethral closure response (cmH2O) after drug administration” value in assay [1] (1 mg/kg) stood at 7.5 ± 1.6 cmH2O. Further, the “urethral closure response (cmH2O) before drug administration” value in assay [1] (baseline of the 1 mg/kg) came to 4.6 ± 0.8 cmH2O. In addition, the “effect on urethral closure response induced by increased intravesical pressure (in words)” value in assay [1] was “enhanced the urethral closure response”. The “change of leak point pressure (cmH2O)” value turned out to be 8.4 ± 5.0 cmH2O in assay [2] (0.1 mg/kg), 10.3 ± 2.4 cmH2O in assay [2] (1 mg/kg) and 25.7 ± 8.7 cmH2O in assay [2] (3 mg/kg). Also, the “effect on leak point pressure (in words)” value in assay [2] is “increased the leak point pressure in a dose-dependent manner”.

Take `CC1CNCc2ccc(N3CCOC[C@H]3C)nc21` (stereo partly drawn) [Example 48, 8-Methyl-2-[(3R)-3-methylmorpholin-4-yl]-5,6,7,8-tetrahydro-1,6-naphthyridine hydrochloride]: in assay [3], the Emax came to 95.5%.

As to `CNCC[C@H](Oc1cccc2ccccc12)c1cccs1` [duloxetine], the “change of leak point pressure (cmH2O)” value in assay [4] (1 mg/kg, i.v., mean ± SEM, n=5) is 11.4 ± 2.4 cmH2O. Besides, in assay [4] (intravenous administration), the “effect on leak point pressure (in words)” value is “significantly increased the leak point pressure”.

As to `c1cc2c(nc1C1CC1)CCNC2` [Example 43, 2-Cyclopropyl-5,6,7,8-tetrahydro-1,6-naphthyridine hydrochloride], in assay [3], the Emax is 97%.

`CC(Oc1ccc2c(n1)CCNC2)C1CC1` (centres unmarked) [Example 31, 2-(1-Cyclopropylethoxy)-5,6,7,8-tetrahydro-1,6-naphthyridine hydrochloride]: the Emax in assay [3] came out at 88.4%.

Regarding `c1cc2c3c(c1)[C@H]1CCC[C@H]1N3CCNC2` [WAY-163909], the “urethral closure response (cmH2O) after drug administration” value in assay [1] (3 mg/kg) amounted to 10.2 ± 1.6 cmH2O. In assay [1] (baseline of the 3 mg/kg), the “urethral closure response (cmH2O) before drug administration” value was 4.4 ± 0.8 cmH2O. Besides, the “effect on urethral closure response induced by increased intravesical pressure (in words)” value in assay [1] is “enhanced the urethral closure response”. The “change of leak point pressure (cmH2O)” value is on record as 4.4 ± 1.6 cmH2O in assay [2] (0.1 mg/kg), 12.9 ± 4.2 cmH2O in assay [2] (1 mg/kg) and 30.1 ± 2.6 cmH2O in assay [2] (3 mg/kg). Besides, the “effect on leak point pressure (in words)” value in assay [2] is given as “increased the leak point pressure in a dose-dependent manner”.

Turning to `CSc1ccc(-c2ccc3c(n2)CCNC3)cc1` [Example 28, 2-[4-(Methylthio)phenyl]-5,6,7,8-tetrahydro-1,6-naphthyridine dihydrochloride], the Emax in assay [3] worked out at 102%.

On to `CC1CNCc2ccc(N(C)C(C)C)nc21` (single isomer, unassigned) [Example 80, (8S*)-N-Isopropyl-N,8-dimethyl-5,6,7,8-tetrahydro-1,6-naphthyridin-2-amine hydrochloride], for which the “ratio relative to maximum response by 5-HT (1 μM)” value (shortened to “ratio relative to maximum response”) in assay [3] worked out at 102.

As for `CC(C)Oc1ccc2c(n1)CCNC2` [Example 30, 2-Isopropoxy-5,6,7,8-tetrahydro-1,6-naphthyridine hydrochloride], in assay [3], the Emax was found to be 97.8%.

With `CC1CNCc2ccc(N3CCOCC3)nc21` (single isomer, unassigned) [Example 73, (8R*)-8-Methyl-2-morpholin-4-yl-5,6,7,8-tetrahydro-1,6-naphthyridine hydrochloride], the Emax in assay [3] was 101%.

As for `CCN(C)c1ccc2c(n1)CCNC2` [Example 15, N-Ethyl-N-methyl-5,6,7,8-tetrahydro-1,6-naphthyridin-2-amine hydrochloride], in assay [3], the Emax was found to be 102%.

Turning to `O=C1Nc2cc(Cl)c(Cl)cc2N2CCNCC12` (centres unmarked) [WAY-161503], the entries for the “change of leak point pressure (cmH2O)” value in assay [2] (0.03 mg/kg) and in assay [2] (0.3 mg/kg) were 7.4 ± 3.8 cmH2O and 12.8 ± 1.0 cmH2O, respectively. Further, the “effect on leak point pressure (in words)” value in assay [2] is “increased the leak point pressure in a dose-dependent manner”.

Turning to `c1cc(-c2ccc3c(n2)CCNC3)co1` [Example 26, 2-(3-Furyl)-5,6,7,8-tetrahydro-1,6-naphthyridine dihydrochloride], in assay [3], the Emax was 98.2%.

As for `CC(C)c1ccc2c(n1)CCNC2` [Example 24, 2-Isopropyl-5,6,7,8-tetrahydro-1,6-naphthyridine hydrochloride], the Emax in assay [3] is 101%.

Regarding `C[C@H]1COCCN1c1ccc2c(n1)CCNC2` [Example 8, 2-[(3S)-3-Methylmorpholin-4-yl]-5,6,7,8-tetrahydro-1,6-naphthyridine hydrochloride], the Emax in assay [3] stood at 90.8%.

In the case of `CC1CNCc2ccc(-c3ccc(F)cc3)nc21` (centres unmarked) [Example 4, 2-(4-Fluorophenyl)-8-methyl-5,6,7,8-tetrahydro-1,6-naphthyridine hydrochloride], the Emax in assay [3] was 101%.

As for `FC(F)(F)c1ccc(-c2ccc3c(n2)CCNC3)cc1` [Example 29, 2-[4-(Trifluoromethyl)phenyl]-5,6,7,8-tetrahydro-1,6-naphthyridine dihydrochloride], in assay [3], the Emax turned out to be 97%.

Turning to `CC1CNCc2ccc(N3CCOC[C@H]3C)nc21` (stereo in doubt) [Example 76, (8S*)-8-Methyl-2-[(3R)-3-methylmorpholin-4-yl]-5,6,7,8-tetrahydro-1,6-naphthyridine hydrochloride], the “ratio relative to maximum response” value in assay [3] amounted to 105.

For `CC(C)N(C)c1ccc2c(n1)CCNC2` [Example 17, N-Isopropyl-N-methyl-5,6,7,8-tetrahydro-1,6-naphthyridin-2-amine hydrochloride], the Emax in assay [3] stood at 100%.

On to `CC1CNCc2ccc(N3CCOC[C@H]3C)nc21` (stereo in doubt) [Example 75, (8R*)-8-Methyl-2-[(3R)-3-methylmorpholin-4-yl]-5,6,7,8-tetrahydro-1,6-naphthyridine hydrochloride], for which the Emax in assay [3] was 103%.

Consider `Fc1ccc(-c2ccc3c(n2)CCNC3)cc1` [Example 27, 2-(4-Fluorophenyl)-5,6,7,8-tetrahydro-1,6-naphthyridine dihydrochloride], for which the Emax in assay [3] worked out at 91.7%.

In the case of `CC1CNCc2ccc(N3CCOCC3)nc21` (single isomer, unassigned) [Example 74, (8S*)-8-Methyl-2-morpholin-4-yl-5,6,7,8-tetrahydro-1,6-naphthyridine hydrochloride], in assay [3], the “ratio relative to maximum response” value was 103.

For the compound `CC1CNCc2ccc(N(C)C(C)C)nc21` (centres unmarked) [Example 53, N-Isopropyl-N,8-dimethyl-5,6,7,8-tetrahydro-1,6-naphthyridin-2-amine hydrochloride], the Emax in assay [3] stood at 91%.

Turning to `c1cc2c(nc1N1CCOCC1)CCNC2` [Example 6, 2-Morpholin-4-yl-5,6,7,8-tetrahydro-1,6-naphthyridine], the Emax in assay [3] turned out to be 100%.

`C[C@@H]1COCCN1c1ccc2c(n1)CCNC2` [Example 7, 2-[(3R)-3-Methylmorpholin-4-yl]-5,6,7,8-tetrahydro-1,6-naphthyridine hydrochloride]: the Emax in assay [3] was determined as 95.6%.

Take `CC1CCNCc2ccc(N3CCOCC3)nc21` (centres unmarked) [Example 2, 9-Methyl-2-morpholin-4-yl-6,7,8,9-tetrahydro-5H-pyrido[3,2-c]azepine hydrochloride]: the Emax in assay [3] amounted to 92.8%.

For the compound `C[C@H]1CNCCc2ccc(Cl)cc21` [APD-356], the “urethral closure response (cmH2O) after drug administration” value in assay [1] (1 mg/kg) worked out at 8.6 ± 2.7 cmH2O. For the same compound, in assay [1] (baseline of the 1 mg/kg), the “urethral closure response (cmH2O) before drug administration” value was 5.3 ± 1.7 cmH2O. Besides, the “effect on urethral closure response induced by increased intravesical pressure (in words)” value in assay [1] is “enhanced the urethral closure response”. The “change of leak point pressure (cmH2O)” value in assay [2] (0.1 mg/kg) is given as 5.2 ± 2.6 cmH2O; in assay [2] (1 mg/kg) it was 19.2 ± 3.1 cmH2O; in assay [2] (3 mg/kg) it was 28.9 ± 3.3 cmH2O. In assay [2], the “effect on leak point pressure (in words)” value is “increased the leak point pressure in a dose-dependent manner”.

As for `CC1CNCc2ccc(N(C)C(C)C)nc21` (single isomer, unassigned) [Example 79, (8R*)-N-Isopropyl-N,8-dimethyl-5,6,7,8-tetrahydro-1,6-naphthyridin-2-amine hydrochloride], the Emax in assay [3] was determined as 106%.

`CC1CNCc2ccc(N3CCOCC3)nc21` (centres unmarked) [Example 5, 8-Methyl-2-morpholin-4-yl-5,6,7,8-tetrahydro-1,6-naphthyridine dihydrochloride]: the Emax in assay [3] came out at 101%.
